Data from ChEMBL document CHEMBL1144400 (J Med Chem, 2005).

Target: Coagulation factor X (Homo sapiens, UniProt P00742)
Assay: Binding affinity for human factor Xa

Coagulation factor X, sequence (P00742 41-179 limits assumed): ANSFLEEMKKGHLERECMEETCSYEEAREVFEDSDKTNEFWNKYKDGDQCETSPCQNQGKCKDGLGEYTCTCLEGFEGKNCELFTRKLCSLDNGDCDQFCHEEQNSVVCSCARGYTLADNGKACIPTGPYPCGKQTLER
Coagulation factor X, sequence (P00742 235-488 limits assumed): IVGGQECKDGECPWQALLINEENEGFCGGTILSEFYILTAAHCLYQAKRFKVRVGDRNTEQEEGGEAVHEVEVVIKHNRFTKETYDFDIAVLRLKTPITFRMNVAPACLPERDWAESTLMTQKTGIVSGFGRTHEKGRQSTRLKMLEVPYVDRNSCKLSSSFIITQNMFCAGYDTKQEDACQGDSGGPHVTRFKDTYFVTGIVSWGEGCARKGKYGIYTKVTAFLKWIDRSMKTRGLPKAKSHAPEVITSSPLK

| Ki | Compound |
| --- | --- |
| 26 nM | Cc1cccc2c(C#N)c(C(=O)NC3CCN(C(C)C)CC3)n(CC(=O)Nc3ccc(Cl)cc3)c12 |
| 3 nM | CC(C)N1CCC(NC(=O)c2cc3cc(F)ccc3n2Cc2cc(-c3ccc(Cl)s3)on2)CC1 |
| 7 nM | CC(C)N1CCC(NC(=O)c2c(C#N)c3cc(S(C)(=O)=O)ccc3n2Cc2cc(-c3ccc(Cl)s3)on2)CC1 |
| 406 nM | COc1cccc(Cn2c(C(=O)NC3CCN(C(C)C)CC3)c(C#N)c3cccc(C)c32)c1 |
| 0.3 nM | CC(C)N1CCC(NC(=O)c2c(C#N)c3ccccc3n2Cc2cc(-c3ccc(Cl)s3)on2)CC1 |
| 25 nM | Cc1cccc2c1cc(C(=O)NC1CCN(C(C)C)CC1)n2CC(=O)Nc1ccc(C(=N)N)cc1 |
| 0.7 nM | CC(C)N1CCC(NC(=O)c2cc3cccc(Cl)c3n2Cc2cc(-c3ccc(Cl)s3)on2)CC1 |
| 0.1 nM | CC(C)N1CCC(NC(=O)c2cc3cccc([N+](=O)[O-])c3n2Cc2cc(-c3cc(Cl)cs3)on2)CC1 |
| 1 nM | Cc1ccc(C)c2c1cc(C(=O)NC1CCN(C(C)C)CC1)n2Cc1cc(-c2ccc(Cl)s2)on1 |
| 9 nM | CC(C)N1CCC(NC(=O)c2cc3cc(Br)ccc3n2Cc2cc(-c3ccc(Cl)s3)on2)CC1 |
| 7 nM | CC(C)N1CCC(NC(=O)c2cc3c(Cl)cccc3n2Cc2cc(-c3ccc(Cl)s3)on2)CC1 |
| 18 nM | Cc1ccc2cc(C(=O)NC3CCN(C(C)C)CC3)n(Cc3cc(-c4ccc(Cl)s4)on3)c2c1 |
| 3 nM | Cc1c(C(=O)NC2CCN(C(C)C)CC2)n(Cc2cc(-c3ccc(Cl)s3)on2)c2ccccc12 |
| 0.07 nM | Cc1cccc2c(C#N)c(C(=O)NC3CCN(C(C)C)CC3)n(Cc3cc(-c4ccc(Cl)s4)on3)c12 |
| 3 nM | Cc1cccc2cc(C(=O)NC3CCN(C(C)C)CC3)n(CC(=O)Nc3ccc(Cl)cc3)c12 |
